Where no end group is shown, it is not given here.
Tested on: EpCAM
Assay: Spot phage ELISA, EpCAM
Type: binding, human
Settings: spot phage ELISA signal-to-noise on EpCAM

Row | Sequence | S/N
1 | GPTQSHYGQCGGKGYPGYIVCSGTTCQMVNQSHSQCLPGAS (disulfide (positions not given here)) [EpCAM CBD 55] | 9.4
2 | GPTQSHYGQCGGKGYQGAMKCSGTTCQYIFFPTSQCLPGAS (disulfide (positions not given here)) [EpCAM CBD 64] | 8.6
3 | GPTQSHYGQCGGKGYRGAIRCSGTTCQYIREFTSQCLPGAS (disulfide (positions not given here)) [EpCAM CBD 43] | 11.4
4 | GPTQSHYGQCGGLGYAGAIVCSGTTCQYTIRNPSQCLPGAS (disulfide (positions not given here)) [EpCAM CBD 65] | 8.6
5 | GPTQSHYGQCGGLGYHGAIMCSGTTCQYAPIVTSQCLPGAS (disulfide (positions not given here)) [EpCAM CBD 52] | 9.8
6 | GPTQSHYGQCGGLGYLGMMQCSGTTCQYIQREISQCLPGAS (disulfide (positions not given here)) [EpCAM CBD 29] | 15.7
7 | GPTQSHYGQCGGLGYQGGMMCSGTTCQYVPIWRSQCLPGAS (disulfide (positions not given here)) [EpCAM CBD 17] | 18.6
8 | GPTQSHYGQCGGLGYTGAIVCSGTTCQWKQLMRSQCLPGAS (disulfide (positions not given here)) [EpCAM CBD 24] | 16.9
9 | GPTQSHYGQCGGLGYVGAMQCSGTTCQYVVRNFSQCLPGAS (disulfide (positions not given here)) [EpCAM CBD 28] | 16.2
10 | GPTQSHYGQCGGMGYHGAISCSGTTCQPIIFPVSQCLPGAS (disulfide (positions not given here)) [EpCAM CBD 19] | 17.9
11 | GPTQSHYGQCGGMGYHGFIVCSGTTCQHMMPTTSQCLPGAS (disulfide (positions not given here)) [EpCAM CBD 12] | 19.8
12 | GPTQSHYGQCGGMGYKGIMCSGTTCQHAYIFRSQCLPGAS (disulfide (positions not given here)) [EpCAM CBD 49] | 10.2
13 | GPTQSHYGQCGGMGYQGMIKCSGTTCQYVARQASQCLPGAS (disulfide (positions not given here)) [EpCAM CBD 47] | 10.5
14 | GPTQSHYGQCGGNGYMGVISCSGTTCQEIQMQRSQCLPGAS (disulfide (positions not given here)) [EpCAM CBD 90] | 4.8
15 | GPTQSHYGQCGGPGYFGXVVCSGTTCQFAHIHRSQCLPGAS (disulfide) [EpCAM CBD 85] | 6.6
16 | GPTQSHYGQCGGPGYLGVIVCSGTTCQYQLRPTSQCLPGAS (disulfide (positions not given here)) [EpCAM CBD 70] | 8.4
17 | GPTQSHYGQCGGPGYPGYIRCSGTTCQWIHSRTSQCLPGAS (disulfide (positions not given here)) [EpCAM CBD 89] | 5.8
18 | GPTQSHYGQCGGPGYQGFIVCSGTTCQYRQPSESQCLPGAS (disulfide (positions not given here)) [EpCAM CBD 2] | 24.7
19 | GPTQSHYGQCGGPGYTGVIKCSGTTCQFVNLPRSQCLPGAS (disulfide (positions not given here)) [EpCAM CBD 51] | 9.8
20 | GPTQSHYGQCGGPGYVGSIMCSGTTCQFQYIPTSQCLPGAS (disulfide (positions not given here)) [EpCAM CBD 23] | 16.9
21 | GPTQSHYGQCGGPGYYGAIVCSGTTCQHTFITHSQCLPGAS (disulfide (positions not given here)) [EpCAM CBD 57] | 9.3

Row | Sequence | S/N
22 | GPTQSHYGQCGGQGYHGAILCSGTTCQYTMISRSQCLPGAS (disulfide (positions not given here)) [EpCAM CBD 5] | 22.8
23 | GPTQSHYGQCGGQGYHGMIRCSGTTCQWVPMVRSQCLPGAS (disulfide (positions not given here)) [EpCAM CBD 39] | 12.6
24 | GPTQSHYGQCGGQGYHGYIMCSGTTCQYYTPYTSQCLPGAS (disulfide (positions not given here)) [EpCAM CBD 68] | 8.5
25 | GPTQSHYGQCGGQGYIGAIMCSGTTCQMRSLPASQCLPGAS (disulfide (positions not given here)) [EpCAM CBD 20] | 17.5
26 | GPTQSHYGQCGGQGYYGAIMCSGTTCQWEPARKSQCLPGAS (disulfide (positions not given here)) [EpCAM CBD 31] | 15.3
27 | GPTQSHYGQCGGRGYFGAIICSGTTCQYVQKHMSQCLPGAS (disulfide (positions not given here)) [EpCAM CBD 9] | 20.9
28 | GPTQSHYGQCGGRGYFGALRCSGTTCQYVTMIESQCLPGAS (disulfide (positions not given here)) [EpCAM CBD 80] | 7.3
29 | GPTQSHYGQCGGRGYKGAIVCSGTTCQVAQMYQSQCLPGAS (disulfide (positions not given here)) [EpCAM CBD 86] | 6.6
30 | GPTQSHYGQCGGRGYPGAMVCSGTTCQWHQPLRSQCLPGAS (disulfide (positions not given here)) [EpCAM CBD 60] | 8.9
31 | GPTQSHYGQCGGRGYPGAVICSGTTCQYHQATRSQCLPGAS (disulfide (positions not given here)) [EpCAM CBD 73] | 7.8
32 | GPTQSHYGQCGGRGYPGAVVCSGTTCQYAVVPHSQCLPGAS (disulfide (positions not given here)) [EpCAM CBD 14] | 19.4
33 | GPTQSHYGQCGGRGYPGFIRCSGTTCQFVQSVQSQCLPGAS (disulfide (positions not given here)) [EpCAM CBD 78] | 7.4
34 | GPTQSHYGQCGGRGYPGRMVCSGTTCQYVAPMISQCLPGAS (disulfide (positions not given here)) [EpCAM CBD 27] | 16.6
35 | GPTQSHYGQCGGRGYVGAIACSGTTCQFTPPRSSQCLPGAS (disulfide (positions not given here)) [EpCAM CBD 87] | 6.1
36 | GPTQSHYGQCGGRGYVGALMCSGTTCQYIAKPVSQCLPGAS (disulfide (positions not given here)) [EpCAM CBD 4] | 23.5
37 | GPTQSHYGQCGGRGYVGGIKCSGTTCQOVHAHPSQCLPGAS (disulfide) [EpCAM CBD 72] | 8.0
38 | GPTQSHYGQCGGRGYWGMAICSGTTCQAQTRMISQCLPGAS (disulfide (positions not given here)) [EpCAM CBD 42] | 11.4
39 | GPTQSHYGQCGGSGYHGAILCSGTTCQYVEVSRSQCLPGAS (disulfide (positions not given here)) [EpCAM CBD 10] | 20.7
40 | GPTQSHYGQCGGSGYKGAIKCSGTTCQLVTVHVSQCLPGAS (disulfide (positions not given here)) [EpCAM CBD 46] | 10.7
41 | GPTQSHYGQCGGSGYKGVIVCSGTTCQYKIMTMSQCLPGAS (disulfide (positions not given here)) [EpCAM CBD 44] | 11.1
42 | GPTQSHYGQCGGSGYPGAVVCSGTTCQWRQVPRSQCLPGAS (disulfide (positions not given here)) [EpCAM CBD 18] | 18.3

Row | Sequence | S/N
43 | GPTQSHYGQCGGSGYPGHFLCSGTTCQTPRSWSSQCLPGAS (disulfide (positions not given here)) [EpCAM CBD 82] | 6.9
44 | GPTQSHYGQCGGSGYWGAIACSGTTCQMVKLPYSQCLPGAS (disulfide (positions not given here)) [EpCAM CBD 69] | 8.5
45 | GPTQSHYGQCGGSGYYGAIMCSGTTCQYMRAMQSQCLPGAS (disulfide (positions not given here)) [EpCAM CBD 79] | 7.4
46 | GPTQSHYGQCGGSGYYGVIVCSGTTCQYVNRKPSQCLPGAS (disulfide (positions not given here)) [EpCAM CBD 36] | 13.1
47 | GPTQSHYGQCGGSGYYGYIVCSGTTCQFKPSGRSQCLPGAS (disulfide (positions not given here)) [EpCAM CBD 81] | 7.0
48 | GPTQSHYGQCGGTGYFGMMRCSGTTCQHVFLERSQCLPGAS (disulfide (positions not given here)) [EpCAM CBD 53] | 9.5
49 | GPTQSHYGQCGGTGYHGVMLCSGTTCQLWAHPLSQCLPGAS (disulfide (positions not given here)) [EpCAM CBD 11] | 20.6
50 | GPTQSHYGQCGGTGYPGAMVCSGTTCQLFELXVSQCLPGAS (disulfide) [EpCAM CBD 74] | 7.8
51 | GPTQSHYGQCGGTGYVGAHVCSGTTCQFVYRDFSQCLPGAS (disulfide (positions not given here)) [EpCAM CBD 48] | 10.5
52 | GPTQSHYGQCGGTGYVGMFKCSGTTCQYVYSSASQCLPGAS (disulfide (positions not given here)) [EpCAM CBD 67] | 8.5
53 | GPTQSHYGQCGGTGYVGYTRCSGTTCQTVPAVMSQCLPGAS (disulfide (positions not given here)) [EpCAM CBD 16] | 18.9
54 | GPTQSHYGQCGGVGYHGAIQCSGTTCQEVKMTRSQCLPGAS (disulfide (positions not given here)) [EpCAM CBD 3] | 23.5
55 | GPTQSHYGQCGGVGYHGMIVCSGTTCQWKPSVYSQCLPDAS (disulfide (positions not given here)) [EpCAM CBD 76] | 7.6
56 | GPTQSHYGQCGGVGYVGSILCSGTTCQFTKVRTSQCLPGAS (disulfide (positions not given here)) [EpCAM CBD 50] | 9.9
57 | GPTQSHYGQCGGWGYQGWAICSGTTCQAQLSHKSQCLPGAS (disulfide (positions not given here)) [EpCAM CBD 83] | 6.8
58 | GPTQSHYGQCGGXGYNGXIVCSGTTCQYXRKSKSQCLPGAS (disulfide) [EpCAM CBD 61] | 8.8
59 | GPTQSHYGQCGGYGYPGLACSGTTCQYTYYMRSQCLPGAS (disulfide (positions not given here)) [EpCAM CBD 71] | 8.3
60 | GPTQSHYGQCGGYGYQGMMMCSGTTCQYVRHKVSQCLPGAS (disulfide (positions not given here)) [EpCAM CBD 30] | 15.6
61 | GPTQSHYGQCGGYVGAIMCSGTTCQFQHVKQSQCLPGAS (disulfide (positions not given here)) [EpCAM CBD 38] | 12.9
